In PubChem BioAssay (NCI) one finds GI50 and TGI data, which are given here for 3 compounds.

Some test systems named below: ACHN renal; COLO 205 colon; HOP-92 NSCLC; RXF 393 renal; SF-268 CNS; SF-539 CNS; SN12C renal; SW-620 colon; TK-10 renal; U251 CNS.
Common to all, as to assay: inhibition of tumour cell growth, NCI panel, 48 h

“And” between values parts separate entries of the source, which are not always exact repeats. Identical values can stand only once.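 Interpolation was linear, between the two tested concentrations surrounding the appropriate level; five concentrations were tested over 48 hours in 96-well plates. GI50 is the concentration that inhibits growth by half. TGI is the concentration that stops growth completely.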 Where only a bound is given, the exact number is not on record here.

`COc1cc(C2c3cc4c(cc3[C@@H](Nc3ccc(N(C)C)cc3)[C@H]3COC(=O)C23)OCO4)cc(OC)c1O` (stereo partly drawn): the GI50 with ACHN renal was 0.0694 µM; in the experiment on COLO 205 colon it was 3.51 µM; in the experiment with HOP-92 NSCLC, 0.807 µM; in the experiment on SF-268 CNS, 3.13 µM; in the experiment on SF-539 CNS it was 0.572 µM; in the experiment with SN12C renal it was 0.453 µM. For the same compound, the GI50 was 1.92 µM in the experiment with SW-620 colon, 8.85 µM with TK-10 renal and 0.195 µM in the experiment on U251 CNS. Further, the TGI is 0.999 µM and 1.34 µM in the experiment on ACHN renal; 8.04 µM and 18.9 µM in the experiment with COLO 205 colon; 11.4 µM and 17 µM in the experiment with HOP-92 NSCLC; 4.33 µM with RXF 393 renal; 4.32 µM and 16.6 µM in the experiment with SF-268 CNS; 1.62 µM and 2.41 µM with SF-539 CNS. Besides, the TGI was 2.41 µM and 3.64 µM in the experiment on SN12C renal; 14 µM and 16.5 µM with SW-620 colon; 11.6 µM and 27.2 µM in the experiment on TK-10 renal; 1.33 µM and 3.37 µM with U251 CNS.

With `S=C(N/N=C/c1cc(Cl)cc(Cl)c1)NC12CC3CC(CC(C3)C1)C2`, the GI50 is 2.29 µM in the experiment with ACHN renal; 7.13 µM with COLO 205 colon; 2.5 µM in the experiment on HOP-92 NSCLC; 4.19 µM in the experiment with RXF 393 renal; 6.18 µM in the experiment on SF-268 CNS; 8.85 µM with SF-539 CNS. Also, the GI50 was 13.4 µM with SW-620 colon, 4.44 µM in the experiment on TK-10 renal and 3.18 µM with U251 CNS. Besides, the TGI is 8.05 µM with ACHN renal; above 100 µM in the experiment on COLO 205 colon; 12 µM in the experiment on HOP-92 NSCLC; above 37.2 µM with RXF 393 renal; above 100 µM in the experiment with SF-268 CNS; above 100 µM in the experiment on SF-539 CNS. For the same compound, the TGI was above 100 µM with SN12C renal, above 100 µM in the experiment with SW-620 colon, 19.1 µM in the experiment with TK-10 renal and above 33.6 µM in the experiment on U251 CNS.

Consider `CC(=O)c1cccc(N(/C=C/C(=O)C(F)(F)F)CC(=O)c2ccc(Cl)cc2)c1`, for which the GI50 in the experiment on ACHN renal, in the experiment on COLO 205 colon, in the experiment on HOP-92 NSCLC, with RXF 393 renal, in the experiment with SF-268 CNS and in the experiment on SF-539 CNS was above 100 µM throughout. Besides, the GI50 in the experiment on SN12C renal, in the experiment with SW-620 colon, in the experiment on TK-10 renal and in the experiment on U251 CNS was above 100 µM each time. Also, the TGI in the experiment with ACHN renal, in the experiment on COLO 205 colon, in the experiment with HOP-92 NSCLC, in the experiment on RXF 393 renal, with SF-268 CNS and with SF-539 CNS was above 100 µM throughout. In addition, the TGI in the experiment with SN12C renal, with SW-620 colon, with TK-10 renal and in the experiment with U251 CNS was above 100 µM in each case.
